For orientation: IC50 means the midpoint of a concentration-inhibition curve.

The target of the assay is Ubiquitin carboxyl-terminal hydrolase 30 (Homo sapiens) (UniProt Q70CQ3). Briefly: ubiquitin-specific protease 30 DUB inhibitors, concentration-effect, biochemical, validation of primary actives (AID 1645865). To be noted: purified USP30, Ub-rhodamine cleavage, fluorescence, 2 h.

Each structure is given as a SMILES string. Active and inactive are the calls of the source.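 How the source made its calls: active means maximal inhibition of the USP30 enzyme reaching 30% or more across the dose series; inactive means the rest.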

Ubiquitin carboxyl-terminal hydrolase 30 (Homo sapiens), sequence (Q70CQ3 whole entry, looked up): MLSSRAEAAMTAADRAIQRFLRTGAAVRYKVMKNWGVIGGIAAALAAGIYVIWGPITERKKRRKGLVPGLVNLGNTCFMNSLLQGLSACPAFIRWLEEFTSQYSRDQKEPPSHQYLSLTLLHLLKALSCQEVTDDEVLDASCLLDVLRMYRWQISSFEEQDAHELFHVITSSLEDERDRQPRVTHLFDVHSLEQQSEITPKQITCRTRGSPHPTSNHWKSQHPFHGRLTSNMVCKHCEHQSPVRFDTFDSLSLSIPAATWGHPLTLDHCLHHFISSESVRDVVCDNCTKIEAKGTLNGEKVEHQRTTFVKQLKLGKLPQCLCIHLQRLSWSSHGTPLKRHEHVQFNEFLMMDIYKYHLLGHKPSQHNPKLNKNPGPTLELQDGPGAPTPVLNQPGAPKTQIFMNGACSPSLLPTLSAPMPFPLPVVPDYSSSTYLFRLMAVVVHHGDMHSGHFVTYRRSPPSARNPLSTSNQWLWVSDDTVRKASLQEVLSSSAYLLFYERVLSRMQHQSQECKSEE

In the case of `CC(C)(C)C(=O)C1C2C(=O)N(c3ccc4c(c3)OCO4)C(=O)C2C2c3ccccc3C=CN12` (configuration not stated), the IC50 was > 50 µM (inactive). As for `COc1ccc(-c2cc(-c3ccccc3)nc(SCC(N)=O)c2C#N)cc1OC`, the figure is 1.59 µM. As for `N#Cc1cccc(S(=O)(=O)N2CCc3nc4ccccc4n3CC2)c1`, the IC50 was 20.3 µM. Regarding `COc1cccc(N2CCN(c3ccc4nnc(CCC(=O)N5CCc6ccccc6C5)n4n3)CC2)c1`, the IC50 is 39.2 µM. With `O=C1Nc2ccccc2C(=O)C1C(c1ccc(Cl)cc1)C1C(=O)Nc2ccccc2C1=O` (configuration not stated), the IC50 was > 50 µM (inactive). Then `CC(C)Cc1nc2sc3c(NCCN4CCOCC4)ncnc3c2c2c1CCC2`, with > 50 µM (inactive). As for `NS(=O)(=O)c1cc(C(=O)OCC(=O)NC2CCCc3ccccc32)ccc1Cl` (configuration not stated), the figure is > 50 µM (inactive); as for `COC(=O)c1cc2c(ccn2C)n1CC(=O)NC1CC1`, > 50 µM (inactive); as for `COc1ccc2ncc3c(-c4ccc(C)cc4)nn(-c4ccc(F)cc4)c3c2c1`, 1.82 µM. Then `Cc1nn(-c2ccccc2)c2c1N=C1C(Cl)=CC(Cl)=CN1C21C(=O)Nc2ccccc21` (configuration not stated), with > 50 µM (inactive); and `Cc1nc2ccccc2nc1SCC(=O)Nc1ccc2c(c1)OCO2`, with 40.3 µM. As for `Nc1c(C(=O)NCc2ccc3c(c2)OCO3)nnn1Cc1ccc(Br)cc1F`, the IC50 is 2.35 µM. As for `CCN(CC)C(=O)c1sc(NC(=O)/C=C/c2c(F)cccc2Cl)c(C#N)c1C`, the figure is 1.89 µM; as for `CC(C)Cc1cc(-c2nnc3sc(-c4ccco4)nn23)n[nH]1`, > 50 µM (inactive); as for `COc1ccccc1C(=O)N1CCC(S(=O)(=O)c2ccc(-c3ccco3)cc2)CC1`, > 50 µM (inactive).

Take `Cc1noc(-c2cccc(=O)n2CC(=O)Nc2ccc(C)c(C)c2)n1`: the IC50 is 25 µM. For the compound `CC1OC2CC(O)C1(O)C1=C2C(=O)c2c(O)c3c(c(O)c2C1=O)[C@H](C)O[C@H]1CC(=O)O[C@@H]31` (some centres not stated), the IC50 is > 50 µM (inactive).

On to `Cc1noc(C)c1COc1cccc(C(=O)Nc2cc(Cl)ccc2-n2cncn2)c1`, for which the IC50 is > 50 µM (inactive). As for `CCOC(=O)CSc1nnc(-c2cnn(-c3ccccc3)c2N)o1`, the figure is 18.2 µM; as for `Cc1ccc(NC(=O)c2sc(=S)n(CCc3ccccc3)c2N)cc1`, 1.74 µM; as for `O=C(Cn1c(=O)n(Cc2ccc(F)cc2)c(=O)c2sccc21)Nc1cccc(Cl)c1`, 4.47 µM.

Turning to `COc1ccc(C(=O)Nc2ccc3c(c2)Sc2ncccc2C(=O)N3C)cn1`, the IC50 was > 50 µM (inactive).

For the compound `COC1=CC(=O)c2c(O)c(C)c(CC(C)=O)c(O)c2C1=O`, the IC50 is > 50 µM (inactive). For `COc1cc(C#N)c(NC(=NCc2ccc(F)cc2)SC)cc1OC`, the IC50 was 20.5 µM. For the compound `COc1cc(OC)c(NC(=O)Cn2c(=O)n(Cc3ccccc3Cl)c(=O)c3cc(OC)c(OC)cc32)cc1Cl`, the IC50 was 2.28 µM. As to `Cc1nc2sc(C(=O)Nc3ccccc3Br)c(N)c2c(C)c1C`, the IC50 was 1.2 µM. As for `O=[N+]([O-])c1ccc(NCC2COc3ccccc3O2)c(Cl)c1` (configuration not stated), the figure is > 50 µM (inactive); as for `COc1ccc2c(c1)CCc1c(C(=O)NCc3cccnc3)noc1-2`, 19.4 µM. Regarding `O=C(Nc1nnc2n1CCCS2)c1cccc(Cl)c1`, the IC50 is > 50 µM (inactive). With `COc1ccccc1-c1nc2c3c(C)c(C)n(Cc4cccnc4)c3ncn2n1`, the IC50 was > 50 µM (inactive).

With `CCC(C)c1ccc(-c2csc(Cn3c(CN4CCN(C)CC4)nc4ccccc4c3=O)n2)cc1` (configuration not stated), the IC50 is 1.63 µM. Then `COc1cc(NC(=O)Cn2nc(-c3ccc(F)cc3)ccc2=O)ccc1-n1cnnn1`, with 1.74 µM. `CCc1cc(=O)n(CC(=O)Nc2cc(C)ccc2OC)c(N2CCOCC2)n1`: the IC50 was 26 µM. As for `CCC1=C(c2ccc(C)cc2)S(=O)(=O)NC1=NCC(=O)NCc1ccccc1F`, the figure is > 50 µM (inactive). Consider `O=c1ncn(Cc2ccc3c(c2)OCO3)cc1-c1ncc(C(F)(F)F)cc1Cl`, for which the IC50 is 48.2 µM.

Regarding `CC(C)N(C(=O)Cn1c(=O)[nH]c2ccccc21)c1ccccc1`, the IC50 was > 50 µM (inactive).

For `Cc1cc(C(=O)N2CCOC3(CC=CCN(CCc4ccccc4)C3=O)C2)n2nccc2n1` (configuration not stated), the IC50 was > 50 µM (inactive).

In the case of `Cc1ccc2c(=O)c(C(=O)Nc3ccccc3)cn(CC(=O)NC3CCCCC3)c2n1`, the half-inhibitory concentration (IC50) was below 0.05 µM.

Take `COc1ccc(-c2nc(Cn3nnc(C(=O)Nc4ccc(C)c(C)c4)c3N)c(C)o2)cc1`: the IC50 is 2.53 µM.

For the compound `Cc1noc(-c2cc(=O)n(CC(=O)NCc3ccccc3)c3ccccc23)n1`, the IC50 was > 50 µM (inactive). Turning to `O=C(CN(Cc1ccc(Cl)cc1)S(=O)(=O)c1ccc(Cl)cc1)N1CCOCC1`, the IC50 was > 50 µM (inactive). Then `CC(=O)N1Cc2ccccc2CC2(CCCN(CC3CCOCC3)C2)C1` (configuration not stated), with > 50 µM (inactive); and `N#C/C(=C/c1sc(N2CCOCC2)nc1-c1ccccc1)c1ccccn1`, with > 50 µM (inactive); and `O=C(Nc1ccc2c(c1)OCCO2)c1cccc2nc3ccccc3nc12`, with 1.56 µM. As for `FC(F)(F)c1cccc(N2CCN(c3nc4ccccc4n4nnnc34)CC2)c1`, the figure is > 50 µM (inactive); as for `O=C(/C=C/c1cnc2ccccc2c1)NCc1ccccc1`, 35.1 µM. With `CC(=O)c1sc(NC(=O)c2ccccc2-c2ccc(C(F)(F)F)cc2)nc1C`, the IC50 is 11 µM. In the case of `O=C(Nc1cccc(Cl)c1)N1CCN(c2cc(C(F)(F)F)ccn2)CC1`, the IC50 was 8.77 µM. Then `CC(=O)N1CCc2cc(S(=O)(=O)NCCC(=O)Nc3cccc(C)c3C)ccc21`, with 39 µM.

Consider `Cc1cccc(C(=O)N2CCc3cc(-c4nc(NC(=O)CN5CCc6ccccc6C5)sc4C)ccc32)c1`, for which the IC50 is > 50 µM (inactive). `O=C(CC1C(=O)Nc2nc(-c3ccccc3)nn21)Nc1cccc2ccccc12` (configuration not stated): the IC50 was 4.38 µM.

Turning to `COc1ccc(-c2cc(C(=O)NC3CCCCCC3)[nH]n2)cc1S(=O)(=O)N(C)C`, the IC50 was 22.9 µM.

As to `COC(=O)c1ccc2c(=O)n(CCCCCC(=O)NCCc3ccc(S(N)(=O)=O)cc3)c(=O)[nH]c2c1`, the IC50 is 6.13 µM.

Turning to `O=C(O)c1ccc(C2Cc3c([nH]c(=O)[nH]c3=O)O2)cc1` (configuration not stated), the IC50 was 9.78 µM.

For the compound `COc1ccc(OC)c(NC(=O)C2=C(C)Nc3ncnn3C2c2ccccc2OCc2ccc(C)cc2)c1` (configuration not stated), the IC50 was 17.5 µM. As for `COc1cccc(CC(=O)Nc2cc(F)c3nc(N4CCOCC4)ccc3c2)c1`, the figure is > 50 µM (inactive); as for `CCCCN1CC(C(=O)Nc2ccc(C(=O)Nc3ccc(Cl)cc3)cc2)CC1=O` (configuration not stated), 2.21 µM.

Consider `CS(=O)(=O)c1ccc(NC(=O)C2CN(c3nc4c(F)cccc4s3)C2)cc1`, for which the IC50 is 31.1 µM. As to `Cc1ccc(OCCn2c(=N)n(C(C)C)c3ccccc32)cc1`, the 50% inhibitory concentration (IC50) is 35.3 µM. With `CC(C)(C)C(=O)[C@@H]1[C@@H](C(=O)c2ccc3c(c2)OCO3)[C@@]2(C(=O)Nc3ccccc32)[C@H]2c3ccccc3C=CN12`, the IC50 was > 50 µM (inactive). As to `CC(C)=CCCC1(C)OC2=C(C(=O)c3cc(O)cc(O)c3C2=O)[C@H]2C=C(C)CC[C@H]21` (some centres not stated), the IC50 was > 50 µM (inactive). Consider `O=C(COc1nc2ccccc2nc1N1CCOCC1)NC(c1ccccc1)c1ccccc1`, for which the IC50 is > 50 µM (inactive). As for `Cc1ccc(C2=Nc3ccccc3N(CC(=O)Nc3cccc(C)c3C)C(=O)C2)cc1C`, the figure is 4.93 µM; as for `CSc1ccc(CNC(=O)CC2CCN(S(=O)(=O)c3ccc(C)cc3)CC2)cc1`, 20.2 µM; as for `CC(=O)NCc1nc(-c2ccc3c(c2)nc(C)c(=O)n3C2CCCC2)no1`, > 50 µM (inactive).

For `Nc1ncnc(SCc2ccc(Cl)cc2)n1`, the IC50 is 17.1 µM. Then `CCn1c(CNc2ccc(Cl)cc2)nnc1SCC(=O)Nc1ccccc1`, with > 50 µM (inactive); and `Cc1ccc2c(Nc3ccc(CC(=O)O)cc3)c(C(=O)N3CCCC3)cnc2n1`, with > 50 µM (inactive); and `Cc1cc(C(=O)CSc2nc3ccccc3[nH]2)c(C)n1Cc1ccco1`, with > 50 µM (inactive).

Consider `O=C1COc2ccccc2N1Cc1noc(-c2ccccc2)n1`, for which the IC50 was > 50 µM (inactive).

Regarding `CCOc1ccccc1C(=O)Oc1ccc2c(C)cc(=O)oc2c1`, the IC50 is 23.1 µM. Consider `O=C(Nc1ccccc1)c1nc2c(s1)CCN(C(=O)c1ccccc1)CC2`, for which the IC50 is > 50 µM (inactive). Then `CNC(=O)c1cc2c(=O)n3cccc(C)c3nc2n1Cc1ccccc1`, with 2.29 µM. As for `Cc1ccc(NC(=O)Cc2nnc3cc(-c4nc(C)no4)ccn23)cc1`, the figure is 4.06 µM; as for `O=C(NC1CCN(c2nc(-c3cccnc3)nc3ccccc23)CC1)c1cccnc1`, > 50 µM (inactive). Consider `COc1cccc(-n2c(CNCc3cccnc3)nc3ccc([N+](=O)[O-])cc3c2=O)c1`, for which the concentration for half-maximal inhibition (IC50) was 25.2 µM.

`COCCCn1c(C(=O)NCCc2ccccc2)cc2c(=O)n3cccc(C)c3nc21`: the IC50 was 34.7 µM. As to `O=C(COc1ccc(Cl)cc1Cl)Nc1ccccc1-c1nc2ccccc2[nH]1`, the IC50 is 1.61 µM. As for `Cc1ccc(-c2cn(CC(=O)N3CCN(c4ccccn4)CC3)c(=O)o2)cc1`, the figure is 12.3 µM; as for `COc1ccc(C2C(C(=O)Nc3ccccc3OC)=C(C)Nc3nnnn32)cc1Br` (configuration not stated), 27.9 µM. Then `O=C(NC(Cc1ccccc1)c1nc2ccccc2[nH]1)c1ccccn1` (configuration not stated), with > 50 µM (inactive). As for `Cc1ccc2nc(N3CCc4ccccc4C3)c3nncn3c2c1`, the figure is > 50 µM (inactive); as for `Cc1ncc(CO)c2c1Oc1nc(-c3cccc(Cl)c3)nc(SCC(=O)N3CCCCC3)c1C2`, > 50 µM (inactive). `Cc1cccc(CNC(=O)C2CCCN(S(=O)(=O)Cc3ccc(F)cc3)C2)c1` (configuration not stated): the IC50 is 14.5 µM.

With `C=C1CCC2[C@](C)(CCC[C@]2(C)C(=O)OC)[C@H]1CCc1ccoc1/C=C/C(=O)O` (some centres not stated), the IC50 was > 50 µM (inactive).

Turning to `O=C(c1ccco1)N1CCC2(CC1)CC1(CO2)Nc2ccccc2-n2cccc21` (configuration not stated), the IC50 is > 50 µM (inactive). Regarding `COc1ccc(C(=O)CCN2CCOCC2)cc1[N+](=O)[O-]`, the IC50 is > 50 µM (inactive).

Source of the values: PubChem BioAssay AID1645865 (Buhrlage Lab, Dana-Farber Cancer Institute and Novartis …, 2021).
